# Measured values as given in ChEMBL document CHEMBL4765429, “Discovery of methyl 3-((2-((1-(dimethylglycyl)-5-methoxyindolin-6-yl)amino)-5-(trifluoro-methyl) pyrimidin-4-yl)amino)thiophene-2-carboxylate as a potent and selective polo-like kinase 1 (PLK1) inhibitor for combating hepatocellular carcinoma” (Eur J Med Chem, 2020).
# Tests used:
# [1] = Metabolic stability in monkey liver microsomes assessed as clearance; assay type: ADME, Macaca mulatta, Microsome; settings: rhesus monkey, read-out: CLH
# [2] = Metabolic stability in rat liver microsomes assessed as clearance; assay type: ADME, Microsome; settings: read-out: CLH
# [3] = AUC (0 to infinity) in ICR mouse at 5 mg/kg, iv; assay type: ADME, organism-based; parameters: route intravenous, time infinity, dose 5 mg/kg; settings: in vivo
# [4] = Metabolic stability in dog liver microsomes assessed as clearance; assay type: ADME, Canis lupus familiaris, Microsome; settings: read-out: CLH
# [5] = Volume of distribution at steady state in ICR mouse at 5 mg/kg, iv; assay type: ADME, organism-based; settings: in vivo, read-out: Vdss
# [6] = Metabolic stability in human liver microsomes assessed as clearance; assay type: ADME, Microsome; settings: read-out: CLH
# [7] = Half life in ICR mouse at 5 mg/kg, iv; assay type: ADME, organism-based; settings: in vivo
# [8] = Metabolic stability in mouse liver microsomes assessed as clearance; assay type: ADME, Microsome; settings: read-out: CLH
compound,measurement,setting,value
COC(=O)c1sccc1Nc1nc(Nc2cc3c(cc2OC)CCN3C(=O)CN(C)C)ncc1C(F)(F)F,CLint scaled,[1],196 mL/min/kg
same,CLint scaled,[2],91.3 mL/min/kg
same,AUC(0-inf),[3],776 ng·h/mL
same,CLint scaled,[4],61.5 mL/min/kg
same,Vd,[5],5.21 L/kg
same,CLint scaled,[6],74.3 mL/min/kg
same,half-life,[7],88.2 min
same,CLint scaled,[8],331 mL/min/kg
